Here are results for 23 compounds from patent publication US20260125359A1, “HETEROARYL COMPOUNDS AS MULTI-TARGET PROTEIN KINASE INHIBITORS” (FUJIAN HAIXI PHARMACEUTICALS CO., LTD., priority 2023, published 2026).

For orientation: inhibition means the relative decrease from the control value, in per cent. As usually defined, the IC50 is the point on the concentration scale where inhibition reaches its midpoint.

The target of one test is DDR1 (Homo sapiens, UniProt Q08345). Nature of the test: DDR1 in vitro kinase activity assay (LanthaScreen Eu-anti-GST antibody / Kinase Tracer 178). It is filed as binding. As to conditions: for inhibition at 0.01 µM: compound 10 nM, read-out: DDR1 inhibition rate, 10 nM; for inhibition at 0.1 µM: compound 100 nM, read-out: DDR1 inhibition rate, 100 nM. Here is the method: DDR1 in vitro Kinase Activity Assay:
• ENVISION (Perkinelmer, 2104) • White 384-well MicroPlate (Cat #264706, Nunc) • DDR1 (Cat #PV6047, Invitrogen) • 5× Kinase Buffer A (Cat #PV3189, Invitrogen) • Kinase Tracer 178 (Cat #PV5593, Invitrogen) • LanthaScreen® Eu-anti-GST Antibody (Cat #PV5594, Invitrogen)
The compounds to be tested were tested at two concentrations of 100 nM and 10 nM.
Kinase/Antibody Mixtures Preparation: Dilute Kinase/Antibody Mixtures with 1× Kinase Buffer to form 3× working solutions with final concentrations of 5 nM kinase and 2 nM Eu-Anti-GST Antibody, respectively.
Kinase Tracer 178 Preparation: Dilute Kinase Tracer 178 with 1× Kinase Buffer to make a 3× working solution with a final concentration of 10 nM.
After all reagents were prepared according to the methods described above, except for the enzyme, they were equilibrated to room temperature before starting the sample addition. • a) First, 3% DMSO solutions were prepared separately using the pre-prepared 1× kinase buffer (DMSO concentrations that were too high could affect the reaction, so the final concentration of DMSO was controlled at 1%). Then, the corresponding 3% DMSO solution for the enzyme was used to dilute the test compounds. Compounds were screened with two concentrations of 100 nM and 10 nM. Except for the control wells, 5 μL of the diluted test compound solution was added to the reaction wells, and 5 μL of the pre-prepared 3% DMSO solution was added to the control wells. • b) 5 μL of the pre-prepared Kinase/Antibody mixtures was added to all reaction wells except the negative control wells. For the negative control wells, 5 μL of 1× kinase buffer corresponding to the enzyme was added to make up the volume. • c) 5 μL of the pre-prepared Kinase Tracer 178 solution was added to all reaction wells. • d) The plate was sealed and mixed, incubated at room temperature for 1 hour, and the fluorescence signal was detected using the ENVISION (PerkinElmer) instrument (excitation at 340 nm, emission at 665 nm and 615 nm). The inhibition rate for each well was calculated based on the full-activity control wells and background signal wells, and the average value of the replicates was taken.
A general note: Time-resolved FRET reads energy transfer from a long-lived donor to a nearby acceptor.

The test system of the next test is M-NFS-60 cells. Nature of the test: M-NFS-60 cell in vitro assay (CCK, 48 h, M-CSF factor medium). It is filed as cell-based. As to conditions: M-NFS-60 cells; read-out: M-NFS-60cellassay IC50. An outline of the steps:
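Mouse M-NFS-60 cells (2000/well) in RPMI-1640 with 10% serum and M-CSF (25 ng/ml) were pre-incubated 4 h, then exposed to DMSO-diluted compound gradients for 48 h at 5% CO2. Viability read by CCK, 2 h, OD 450 nm; IC50 from curve fitting.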

Sequence of DDR1 (Q08345 19-913): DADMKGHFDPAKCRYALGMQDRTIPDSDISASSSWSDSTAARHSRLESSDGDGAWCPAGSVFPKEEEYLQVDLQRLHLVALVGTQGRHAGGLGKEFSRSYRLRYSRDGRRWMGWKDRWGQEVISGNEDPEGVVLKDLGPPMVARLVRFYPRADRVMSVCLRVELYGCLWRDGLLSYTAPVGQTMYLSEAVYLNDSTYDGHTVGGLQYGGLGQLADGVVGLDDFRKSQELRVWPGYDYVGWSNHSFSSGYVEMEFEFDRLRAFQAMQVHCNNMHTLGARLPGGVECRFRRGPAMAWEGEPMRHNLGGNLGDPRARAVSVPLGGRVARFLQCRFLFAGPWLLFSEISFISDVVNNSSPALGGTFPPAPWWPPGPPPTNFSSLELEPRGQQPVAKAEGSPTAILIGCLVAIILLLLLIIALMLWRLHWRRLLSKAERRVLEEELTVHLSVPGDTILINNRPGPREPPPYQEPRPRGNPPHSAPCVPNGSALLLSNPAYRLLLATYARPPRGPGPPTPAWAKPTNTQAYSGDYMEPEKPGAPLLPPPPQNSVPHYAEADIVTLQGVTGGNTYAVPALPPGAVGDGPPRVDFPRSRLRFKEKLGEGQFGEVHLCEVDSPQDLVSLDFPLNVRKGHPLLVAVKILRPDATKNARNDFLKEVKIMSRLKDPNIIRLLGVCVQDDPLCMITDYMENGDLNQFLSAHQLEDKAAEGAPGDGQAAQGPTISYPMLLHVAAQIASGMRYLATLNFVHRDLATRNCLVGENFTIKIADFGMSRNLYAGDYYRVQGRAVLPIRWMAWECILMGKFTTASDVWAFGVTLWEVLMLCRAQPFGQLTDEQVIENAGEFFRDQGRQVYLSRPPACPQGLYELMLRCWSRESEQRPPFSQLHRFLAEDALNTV

As for `CN(c1cncc(-c2cnn(C)c2)c1)[C@H]1CCc2c(C(=O)Nc3cccc(C4CC4)c3)cccc21` [Compound 22a, (S)—N-(3-cyclopropylphenyl)-1-(methyl (5-(1-methyl-1H-pyrazol-4-yl)pyridin-3-yl)amino)-2,3-dihydro-1H-indene-4-carboxamide], at DDR1, the inhibition at 0.01 µM was 32.4% and the inhibition at 0.1 µM amounted to 86%. Also, the IC50 in the test on M-NFS-60 cells was less than 50 nM.
`CN1CCc2nc(NC(=O)c3cccc4c3CC[C@@H]4Oc3cncc(-c4cnn(C)c4)c3)sc2C1` [Compound 19f]: at DDR1, the inhibition at 0.01 µM was determined as 23.1% and the inhibition at 0.1 µM was 53.5%. Further, the IC50 in the test with M-NFS-60 cells fell in the range of 50 to 200 nM.
For `Cc1cc(NC(=O)c2cccc3c2CC[C@@H]3Oc2cncc(-c3cnn(C)c3)c2)cc(C)n1` [Compound 19k, (S)—N-(2,6-dimethylpyridin-4-yl)-1-((5-(1-methyl-1H-pyrazol-4-yl)pyridin-3-yl)oxy)-2,3-dihydro-1H-indene-4-carboxamide] the same measures were 81.4%, 89.9% and less than 50 nM.
For the compound `Cn1ncc2ncc(N[C@H]3CCc4c(C(=O)Nc5cccc(C6CC6)c5)cccc43)cc21` [Compound 73, (S)—N-(3-cyclopropylphenyl)-1-((1-methyl-1H-pyrazolo[4,3-b]pyridin-6-yl)amino)-2,3-dihydro-1H-indene-4-carboxamide], on DDR1, the inhibition at 0.01 µM stood at 72.5% and the inhibition at 0.1 µM stood at 103%. The IC50 in the test with M-NFS-60 cells was less than 50 nM.
Take `Cn1cc2ncc(O[C@H]3CCc4c(C(=O)Nc5nn(C)c6ccccc56)cccc43)cc2n1` [Compound 76al]: at DDR1, the inhibition at 0.01 µM was determined as 98% and the inhibition at 0.1 µM amounted to 98.5%. The IC50 in the test with M-NFS-60 cells is less than 50 nM.
`Cn1cc(-c2cncc(O[C@H]3CCc4c(C(=O)Nc5cncc(Cl)c5)cccc43)c2)cn1` [Compound 19a, (S)—N-(5-chloropyridin-3-yl)-1-((5-(1-methyl-1H-pyrazol-4-yl)pyridin-3-yl)oxy)-2,3-dihydro-1H-indene-4-carboxamide]: at DDR1, the inhibition at 0.01 µM came to 69.4% and the inhibition at 0.1 µM stood at 102%. Also, the IC50 in the test with M-NFS-60 cells was less than 50 nM.
The corresponding values for `CN(c1cnc2cn(C)nc2c1)[C@H]1CCc2c(C(=O)Nc3cncc(Cl)c3)cccc21` [Compound 80k] are 14.7%, 83.9% and less than 50 nM.
For the compound `Cn1cc(-c2cncc(O[C@H]3CCc4c(C(=O)Nc5cccc(C6CC6)c5)cccc43)c2)cn1` [Compound 19b], at DDR1, the inhibition at 0.01 µM is 84% and the inhibition at 0.1 µM came to 105%. Also, in the test on M-NFS-60 cells, the IC50 was less than 50 nM.
The corresponding values for `CN(C)Cc1cncc(NC(=O)c2cccc3c2CC[C@@H]3Oc2cncc(-c3cnn(C)c3)c2)c1` [Compound 19h] are 65.3%, 97.1% and more than 500 nM.
`Cn1cc(-c2cncc(N[C@H]3CCc4c(Nc5cc(C(C)(C)C)on5)cccc43)c2)cn1` [Compound 41, (S)—N^4-(5-(tert-butyl)isoxazol-3-yl)-N^1-(5-(1-methyl-1H-pyrazol-4-yl)pyridin-3-yl)-2,3-dihydro-1H-indene-1,4-diamine]: on DDR1, the inhibition at 0.01 µM turned out to be 20.2% and the inhibition at 0.1 µM was 78.2%. The IC50 in the test on M-NFS-60 cells is less than 50 nM.
As for `CN(c1cnc2cn(C)nc2c1)[C@H]1CCc2c(C(=O)Nc3nn(C)c4ccccc34)cccc21` [Compound 80l], on DDR1, the inhibition at 0.01 µM turned out to be 75.1% and the inhibition at 0.1 µM is 97.9%. In the test on M-NFS-60 cells, the IC50 is less than 50 nM.
On to `Cn1cc2ncc(O[C@H]3CCc4c(C(=O)Nc5nn(C)c6cccc(F)c56)cccc43)cc2n1` [Compound 76aw], for which, on DDR1, the inhibition at 0.01 µM worked out at 64% and the inhibition at 0.1 µM amounted to 93.6%. Also, the IC50 with M-NFS-60 cells is less than 50 nM.
With `Cc1cncc(NC(=O)c2cccc3c2CC[C@@H]3Nc2cncc(-c3cnn(C)c3)c2)c1` [Compound 14as], at DDR1, the inhibition at 0.01 µM is 94.7% and the inhibition at 0.1 µM came out at 103%. The IC50 with M-NFS-60 cells was less than 50 nM.
The corresponding values for `Cn1cc(-c2cnc(N)c(O[C@H]3CCc4c(C(=O)Nc5cccc(C6CC6)c5)cccc43)c2)cn1` [Compound 4, (S)-1-((2-amino-5-(1-methyl-1H-pyrazol-4-yl)pyridin-3-yl)oxy)-N-(3-cyclopropylphenyl)-2,3-dihydro-1H-indene-4-carboxamide] are 88.6%, 98.2% and less than 50 nM.
On to `Cn1ncc2ncc(N[C@H]3CCc4c(Nc5cc(C(C)(C)C)on5)cccc43)nc21` [Compound 86, (S)—N^4-(5-(tert-butyl)isoxazol-3-yl)-N1-(1-methyl-1H-pyrazolo[3,4-b]pyrazin-6-yl)-2,3-dihydro-1H-indene-1,4-diamine], for which, on DDR1, the inhibition at 0.01 µM turned out to be 20% and the inhibition at 0.1 µM was 98.4%. Besides, the half-inhibitory concentration (IC50) in the test on M-NFS-60 cells is less than 50 nM.
On to `Cn1cc2ncc(O[C@H]3CCc4c(C(=O)Nc5cncc(Cl)c5)cccc43)cc2n1` [Compound 76ai], for which, on DDR1, the inhibition at 0.01 µM is 94.2% and the inhibition at 0.1 µM is 99.6%. Moreover, the IC50 with M-NFS-60 cells was less than 50 nM.
Take `CN(c1cncc(-c2cnn(C)c2)c1)[C@H]1CCc2c(C(=O)Nc3cncc(Cl)c3)cccc21` [Compound 21, (S)—N-(5-chloropyridin-3-yl)-1-(methyl (5-(1-methyl-1H-pyrazol-4-yl)pyridin-3-yl)amino)-2,3-dihydro-1H-indene-4-carboxamide]: on DDR1, the inhibition at 0.01 µM amounted to 29.7% and the inhibition at 0.1 µM was 88%. For the same compound, the concentration for half-maximal inhibition (IC50) in the test on M-NFS-60 cells was 50 to 200 nM.
Regarding `Cc1cncc(NC(=O)c2cccc3c2CC[C@@H]3Oc2cncc(-c3cnn(C)c3)c2)c1` [Compound 19j], on DDR1, the inhibition at 0.01 µM is 86.1% and the inhibition at 0.1 µM was 96.7%. Besides, the half-inhibitory concentration (IC50) with M-NFS-60 cells is less than 50 nM.
As to `Cn1cc(-c2cncc(N[C@H]3CCc4c(C(=O)Nc5ccc(C(F)(F)F)nc5)cccc43)c2)cn1` [Compound 14ah], at DDR1, the inhibition at 0.01 µM came out at 37.9% and the inhibition at 0.1 µM turned out to be 85.6%. Further, in the test with M-NFS-60 cells, the IC50 is less than 50 nM.
Regarding `Cc1cccc(NC(=O)c2cccc3c2CC[C@@H]3Oc2cnc3cn(C)nc3c2)n1` [Compound 76bd], at DDR1, the inhibition at 0.01 µM is 21.2% and the inhibition at 0.1 µM is 69.7%. In addition, the IC50 in the test on M-NFS-60 cells is less than 50 nM.
For the compound `Cn1cc2ncc(N[C@H]3CCc4c(C(=O)Nc5nc(C6CC6)cs5)cccc43)cc2n1` [Compound 74h, (S)—N-(4-cyclopropylthiazol-2-yl)-1-((2-methyl-2H-pyrazolo[4,3-b]pyridin-6-yl)amino)-2,3-dihydro-1H-indene-4-carboxamide], at DDR1, the inhibition at 0.01 µM was determined as 57.2% and the inhibition at 0.1 µM is 99.9%. The IC50 in the test with M-NFS-60 cells was less than 50 nM.
As for `Cc1cccc(C(=O)Nc2cccc3c2CC[C@@H]3Oc2cncc(-c3cnn(C)c3)c2)c1` [Compound 15, (S)-3-methyl-N-(1-((5-(1-methyl-1H-pyrazol-4-yl)pyridin-3-yl)oxy)-2,3-dihydro-1H-inden-4-yl)benzamide], on DDR1, the inhibition at 0.01 µM is 15.9% and the inhibition at 0.1 µM was determined as 88%. Moreover, the half-maximal inhibitory concentration (IC50) in the test on M-NFS-60 cells fell in the range of 200 to 500 nM.
Consider `Cn1cc(-c2cncc(N[C@H]3CCc4c(Nc5noc(C(C)(C)C)n5)cccc43)c2)cn1` [Compound 42o], for which, on DDR1, the inhibition at 0.01 µM turned out to be 4.1% and the inhibition at 0.1 µM is 67.6%. Also, the IC50 with M-NFS-60 cells lay in the range of 50 to 200 nM.
